Legend:
mouse xenograft models = settings: cited from earlier work
erythropoietin = assay: Pharmacodynamics: plasma erythropoietin, phase 1 study; assay type: in vivo, human; settings: all dose levels
[1] = Safety and dose-limiting toxicities, dose-escalation cohort; assay type: in vivo, human
Safety = assay type: in vivo, human; settings: for All-cause adverse event: Anemia / All-cause adverse event: Any / All-cause adverse event: Arthralgia / All-cause adverse event: Back pain / All-cause adverse event: Blood creatinine increased / All-cause adverse event: Constipation / All-cause adverse event: Cough / All-cause adverse event: Dehydration / All-cause adverse event: Diarrhea / All-cause adverse event: Dizziness / All-cause adverse event: Dyspnea / All-cause adverse event: Edema peripheral / All-cause adverse event: Fatigue / All-cause adverse event: Headache / All-cause adverse event: Hyperkalemia / All-cause adverse event: Hypoxia / All-cause adverse event: Nausea / All-cause adverse event: Vomiting: ccRCC cohort (n = 55)
[2] = tested on: previously treated advanced ccRCC; assay: Anti-tumor activity per RECIST v1.1, ccRCC cohort; assay type: in vivo, human
[3] = previous study; cited from earlier work
advanced solid tumors = assay: Anti-tumor activity per RECIST v1.1, dose-escalation cohort; assay type: in vivo, human
[4] = Plasma pharmacokinetics of belzutifan, phase 1 study; assay type: in vivo, human
[5] = ccRCC cohort n = 55, all grade 3
[6] = RECIST v1.1, ccRCC cohort, n = 55

In the case of `CS(=O)(=O)c1ccc(Oc2cc(F)cc(C#N)c2)c2c1[C@H](O)C(F)(F)C2` [MK-3795, reference compound], the Tumor regression (mouse xenograft models; xenograft models) is given as “significant tumor regression”.

In the case of `CS(=O)(=O)c1ccc(Oc2cc(F)cc(C#N)c2)c2c1[C@H](O)[C@H](F)[C@@H]2F` [belzutifan, 3-[(1 S,2 S,3 R)-2,3-difluoro-1-hydroxy-7-methylsulfonylindan-4-yl]oxy-5-fluorobenzo nitrile], the “Change in plasma erythropoietin” value (erythropoietin) is reported as “reductions”, the “Patients with treatment-related dose-limiting toxicity” value ([1]; 120 mg twice daily, one of six patients, grade 3 hypoxia) is reported as 17% and the “Patients with treatment-related dose-limiting toxicity” value ([1]; 240 mg orally, one of seven patients, grade 4 thrombocytopenia) is reported as 14%. The Maximum tolerated dose ([1]; dose-escalation cohort) was “not reached”, the Dose-limiting toxicities ([1]; doses up to 160 mg once daily) was “no dose-limiting toxicities” and the “Patients with anemia who received exogenous erythropoietin” value (Safety; 28 of 42 patients with anemia) was 67%. The “All-cause adverse event: Anemia” value (Safety; All grades or 2) was 42 (76) no. (%), the “All-cause adverse event: Any” value (Safety; All grades or 2) was 55 (100) no. (%) and the “All-cause adverse event: Arthralgia” value (Safety; All grades or 2) was 14 (25) no. (%). For the same compound, the “All-cause adverse event: Back pain” value (Safety; All grades or 2) was 12 (22) no. (%), the “All-cause adverse event: Blood creatinine increased” value (Safety; All grades or 2) was 14 (25) no. (%) and the “All-cause adverse event: Constipation” value (Safety; All grades or 2) was 12 (22) no. (%). The “All-cause adverse event: Cough” value (Safety; All grades or 2) was 17 (31) no. (%), the “All-cause adverse event: Dehydration” value (Safety; All grades or 2) was 11 (20) no. (%) and the “All-cause adverse event: Diarrhea” value (Safety; All grades or 2) was 12 (22) no. (%). The “All-cause adverse event: Dizziness” value (Safety; All grades or 2) was 13 (24) no. (%), the “All-cause adverse event: Dyspnea” value (Safety; All grades or 2) was 27 (49) no. (%) and the “All-cause adverse event: Edema peripheral” value (Safety; All grades or 2) was 15 (27) no. (%). The “All-cause adverse event: Fatigue” value (Safety; All grades or 2) was 39 (71) no. (%), the “All-cause adverse event: Headache” value (Safety; All grades or 2) was 14 (25) no. (%) and the “All-cause adverse event: Hyperkalemia” value (Safety; All grades or 2) was 12 (22) no. (%). The “All-cause adverse event: Hypoxia” value (Safety; All grades or 2) was 17 (31) no. (%), the “All-cause adverse event: Nausea” value (Safety; All grades or 2) was 20 (36) no. (%) and the “All-cause adverse event: Vomiting” value (Safety; All grades or 2) was 16 (29) no. (%). The “All-cause adverse event: Anemia” value (Safety; Grade 1) was 27 (49) no. (%), the “All-cause adverse event: Any” value (Safety; Grade 1) was 16 (29) no. (%) and the “All-cause adverse event: Arthralgia” value (Safety; Grade 1) was 14 (25) no. (%). The “All-cause adverse event: Back pain” value (Safety; Grade 1) was 11 (20) no. (%), the “All-cause adverse event: Blood creatinine increased” value (Safety; Grade 1) was 13 (24) no. (%) and the “All-cause adverse event: Constipation” value (Safety; Grade 1) was 12 (22) no. (%). The “All-cause adverse event: Cough” value (Safety; Grade 1) was 17 (31) no. (%), the “All-cause adverse event: Dehydration” value (Safety; Grade 1) was 10 (18) no. (%) and the “All-cause adverse event: Diarrhea” value (Safety; Grade 1) was 12 (22) no. (%). The “All-cause adverse event: Dizziness” value (Safety; Grade 1) was 13 (24) no. (%), the “All-cause adverse event: Dyspnea” value (Safety; Grade 1) was 24 (44) no. (%) and the “All-cause adverse event: Edema peripheral” value (Safety; Grade 1) was 15 (27) no. (%). The “All-cause adverse event: Fatigue” value (Safety; Grade 1) was 36 (65) no. (%), the “All-cause adverse event: Headache” value (Safety; Grade 1) was 13 (24) no. (%) and the “All-cause adverse event: Hyperkalemia” value (Safety; Grade 1) was 11 (20) no. (%). The “All-cause adverse event: Hypoxia” value (Safety; Grade 1) was 8 (15) no. (%), the “All-cause adverse event: Nausea” value (Safety; Grade 1) was 19 (35) no. (%) and the “All-cause adverse event: Vomiting” value (Safety; Grade 1) was 16 (29) no. (%). The “All-cause adverse event: Anemia” value (Safety; Grade 3) was 15 (27) no. (%), the “All-cause adverse event: Any” value (Safety; Grade 3) was 33 (60) no. (%) and the “All-cause adverse event: Arthralgia” value (Safety; Grade 3) was 0 (0) no. (%). For the same compound, the “All-cause adverse event: Back pain” value (Safety; Grade 3) was 1 (2) no. (%), the “All-cause adverse event: Blood creatinine increased” value (Safety; Grade 3) was 1 (2) no. (%) and the “All-cause adverse event: Constipation” value (Safety; Grade 3) was 0 (0) no. (%). The “All-cause adverse event: Cough” value (Safety; Grade 3) was 0 (0) no. (%), the “All-cause adverse event: Dehydration” value (Safety; Grade 3) was 1 (2) no. (%) and the “All-cause adverse event: Diarrhea” value (Safety; Grade 3) was 0 (0) no. (%). For the same compound, the “All-cause adverse event: Dizziness” value (Safety; Grade 3) was 0 (0) no. (%), the “All-cause adverse event: Dyspnea” value (Safety; Grade 3) was 3 (5) no. (%) and the “All-cause adverse event: Edema peripheral” value (Safety; Grade 3) was 0 (0) no. (%). For the same compound, the “All-cause adverse event: Fatigue” value (Safety; Grade 3) was 3 (5) no. (%), the “All-cause adverse event: Headache” value (Safety; Grade 3) was 1 (2) no. (%) and the “All-cause adverse event: Hyperkalemia” value (Safety; Grade 3) was 1 (2) no. (%). For the same compound, the “All-cause adverse event: Hypoxia” value (Safety; Grade 3) was 9 (16) no. (%), the “All-cause adverse event: Nausea” value (Safety; Grade 3) was 1 (2) no. (%) and the “All-cause adverse event: Vomiting” value (Safety; Grade 3) was 0 (0) no. (%). For the same compound, the “All-cause adverse event: Anemia” value (Safety; Grade 4) was 0 (0) no. (%), the “All-cause adverse event: Any” value (Safety; Grade 4) was 2 (4) no. (%) and the “All-cause adverse event: Arthralgia” value (Safety; Grade 4) was 0 (0) no. (%). The “All-cause adverse event: Back pain” value (Safety; Grade 4) was 0 (0) no. (%), the “All-cause adverse event: Blood creatinine increased” value (Safety; Grade 4) was 0 (0) no. (%) and the “All-cause adverse event: Constipation” value (Safety; Grade 4) was 0 (0) no. (%). For the same compound, the “All-cause adverse event: Cough” value (Safety; Grade 4) was 0 (0) no. (%), the “All-cause adverse event: Dehydration” value (Safety; Grade 4) was 0 (0) no. (%) and the “All-cause adverse event: Diarrhea” value (Safety; Grade 4) was 0 (0) no. (%). The “All-cause adverse event: Dizziness” value (Safety; Grade 4) was 0 (0) no. (%), the “All-cause adverse event: Dyspnea” value (Safety; Grade 4) was 0 (0) no. (%) and the “All-cause adverse event: Edema peripheral” value (Safety; Grade 4) was 0 (0) no. (%). For the same compound, the “All-cause adverse event: Fatigue” value (Safety; Grade 4) was 0 (0) no. (%), the “All-cause adverse event: Headache” value (Safety; Grade 4) was 0 (0) no. (%) and the “All-cause adverse event: Hyperkalemia” value (Safety; Grade 4) was 0 (0) no. (%). For the same compound, the “All-cause adverse event: Hypoxia” value (Safety; Grade 4) was 0 (0) no. (%), the “All-cause adverse event: Nausea” value (Safety; Grade 4) was 0 (0) no. (%) and the “All-cause adverse event: Vomiting” value (Safety; Grade 4) was 0 (0) no. (%). For the same compound, the “Patients requiring dose reductions or discontinuations for anemia” value (Safety; ccRCC cohort) was “No patients”, the “Patients with at least one adverse event” value (Safety; ccRCC cohort) was “All patients” and the “Treatment-related grade 4 or 5 events” value (Safety; ccRCC cohort) was “No treatment-related grade 4 or 5 events occurred”. The “Treatment-related adverse event: anemia” value (Safety; ccRCC cohort n = 55) was 71%, the “Treatment-related adverse event: hypoxia” value (Safety; ccRCC cohort n = 55) was 18% and the “Treatment-related adverse event: nausea” value (Safety; ccRCC cohort n = 55) was 15%. For the same compound, the “Treatment-related adverse event: peripheral edema” value (Safety; ccRCC cohort n = 55) was 16%, the “Grade ≥3 treatment-emergent adverse event: anemia” value (Safety; [5]) was 27% and the “Grade ≥3 treatment-emergent adverse event: hypoxia” value (Safety; [5]) was 16%. For the same compound, the “Patients requiring dose reductions because of treatment-related adverse events” value (Safety; ccRCC cohort, five patients) was 9%, the “Patients who discontinued after treatment-related adverse events” value (Safety; ccRCC cohort, two patients, both hypoxia) was 4% and the “Patients with grade 5 adverse events” value (Safety; ccRCC cohort, disease progression, malignant neoplasm progression, acute kidney injury, cardiac arrest) was “four patients”. For the same compound, the “Patients with target lesion size reduced from baseline” value ([2]; 35 of 52 patients with baseline and post-baseline imaging) was 67%, the Median progression-free survival ([2]; IMDC favorable risk) was “not reached” and the Complete response [2, 6] was 0 (0) no. (%). For the same compound, the Non-evaluable [2, 6] was 3 (5) no. (%), the Partial response [2, 6] was 14 (25) no. (%) and the Progressive disease [2, 6] was 8 (15) no. (%). The Stable disease [2, 6] was 30 (54) no. (%), the “Median duration of response” value ([2]; ccRCC cohort) was “not reached” and the Disease control rate ([2]; ccRCC cohort n = 55, 120 mg once daily) was 80%. For the same compound, the Objective response rate ([2]; ccRCC cohort n = 55, 120 mg once daily, all partial responses) was 25%, the Median progression-free survival ([2]; ccRCC cohort, 95% CI 7.3–not reached, Kaplan–Meier) was 14.5 months and the “Responders with duration of response ≥6 months” value ([2]; ten of 14 responders) was 71%. For the same compound, the “Exposure to belzutifan, dependence on dose” value [3] was “increased with doses up to 120 mg once daily”, the “Responses (all partial)” value (advanced solid tumors; 120 mg once daily, one of six patients) was 17% and the “Responses (all partial)” value (advanced solid tumors; 120 mg twice daily, one of six patients) was 17%. The “Responses (all partial)” value (advanced solid tumors; 160 mg once daily, two of six patients) was 33%, the “Median duration of response” value (advanced solid tumors; any dose cohort, patients who had a response) was “not reached” and the “Dose-normalized area under the concentration curve from time 0 to the end of the dosing period, dependence on dose” value ([4]; 20–240 mg once daily) was “increased with dose from 20 to 120 mg but decreased from 120 to 240 mg once daily”. The Mean accumulation ratio ([4]; 120-mg twice-daily dosing) was 2.4, the “Increase in maximum concentration” value ([4]; 240-mg once-daily cohort compared to 120-mg once-daily expansion cohort) was 38% and the “Median time to maximum observed plasma concentration” value ([4]; across dose levels, oral) was 1.0 to 2.0 h. The half-life ([4]; human, in vivo, po) was 672 to 1290 min, the Mean accumulation ratio ([4]; once-daily dosing) was 1.3–1.5 and the “Potency relative to MK-3795” value (mouse xenograft models; mouse xenograft models) was “approximately ten-fold more potent than MK-3795”.

Source: publication PMC9128828 (Nature medicine, 2021)
